Source: ChEMBL document CHEMBL1909046, “DrugMatrix in vitro pharmacology data”

Columns and labels:
[1] = target: Cytochrome P450 2C9 (Homo sapiens, UniProt P11712); conditions: bti-tn-5b1-4; note: in other assays of this panel Not Active means under 50% inhibition at 10 µM
[2] = target: D(1A) dopamine receptor (Homo sapiens, UniProt P21728); assay: DRUGMATRIX: Dopamine D1 radioligand binding (ligand: [3H] SCH-23390); assay type: cell membranes, Membrane; conditions: cho; Not Active = under 50% inhibition at 10 µM
Sequence of D(1A) dopamine receptor (P21728 whole entry): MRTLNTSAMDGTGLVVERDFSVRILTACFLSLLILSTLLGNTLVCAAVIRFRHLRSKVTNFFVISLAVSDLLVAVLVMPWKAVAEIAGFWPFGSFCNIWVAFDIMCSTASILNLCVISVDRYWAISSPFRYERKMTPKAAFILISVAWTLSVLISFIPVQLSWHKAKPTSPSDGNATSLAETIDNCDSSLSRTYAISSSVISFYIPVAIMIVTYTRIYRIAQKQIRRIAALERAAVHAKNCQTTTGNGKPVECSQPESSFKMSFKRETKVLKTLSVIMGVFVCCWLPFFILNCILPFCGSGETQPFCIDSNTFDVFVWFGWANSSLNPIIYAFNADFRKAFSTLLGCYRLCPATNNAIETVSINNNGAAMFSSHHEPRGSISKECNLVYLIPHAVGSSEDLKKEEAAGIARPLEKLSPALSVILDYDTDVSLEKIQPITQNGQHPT

[3] = target: D(3) dopamine receptor (Homo sapiens, UniProt P35462); assay: DRUGMATRIX: Dopamine D3 radioligand binding (ligand: [3H] Spiperone); assay type: cell membranes, CHO, Membrane
Sequence of D(3) dopamine receptor (P35462 whole entry): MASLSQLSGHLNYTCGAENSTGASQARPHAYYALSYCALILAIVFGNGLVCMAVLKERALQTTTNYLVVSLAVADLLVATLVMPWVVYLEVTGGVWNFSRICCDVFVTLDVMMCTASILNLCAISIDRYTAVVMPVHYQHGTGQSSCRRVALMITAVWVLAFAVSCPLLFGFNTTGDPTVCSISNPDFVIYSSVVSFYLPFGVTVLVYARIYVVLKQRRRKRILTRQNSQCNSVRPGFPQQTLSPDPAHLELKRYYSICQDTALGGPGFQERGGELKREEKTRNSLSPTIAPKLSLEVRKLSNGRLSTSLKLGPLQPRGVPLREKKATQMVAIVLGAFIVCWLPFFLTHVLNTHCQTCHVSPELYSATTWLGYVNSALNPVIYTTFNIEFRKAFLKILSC

[4] = target: T1, Cytochrome P450 1A2 (Homo sapiens, UniProt P05177); conditions: bti-tn-5b1-4; note: in other assays of this panel Not Active means under 50% inhibition at 10 µM
T1 sequence (P05177 whole entry): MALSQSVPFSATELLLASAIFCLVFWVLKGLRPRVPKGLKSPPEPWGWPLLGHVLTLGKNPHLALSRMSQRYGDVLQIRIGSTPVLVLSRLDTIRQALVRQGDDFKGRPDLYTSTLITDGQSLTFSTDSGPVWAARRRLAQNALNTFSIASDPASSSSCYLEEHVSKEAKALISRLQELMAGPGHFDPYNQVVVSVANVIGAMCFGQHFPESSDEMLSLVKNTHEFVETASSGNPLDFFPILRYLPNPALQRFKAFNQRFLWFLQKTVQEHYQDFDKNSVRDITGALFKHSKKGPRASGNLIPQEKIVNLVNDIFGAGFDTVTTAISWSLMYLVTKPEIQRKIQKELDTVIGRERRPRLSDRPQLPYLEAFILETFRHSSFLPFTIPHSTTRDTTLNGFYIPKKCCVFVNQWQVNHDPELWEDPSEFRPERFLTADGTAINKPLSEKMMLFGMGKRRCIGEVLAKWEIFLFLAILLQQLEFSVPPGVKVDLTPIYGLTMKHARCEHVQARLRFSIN

[5] = DRUGMATRIX: Glutamate, AMPA radioligand binding (ligand: [3H] AMPA); assay type: cell membranes, Rattus norvegicus, Wistar, Cerebral cortex, Membrane; conditions: Not Active = under 50% inhibition at 10 µM
[6] = target: Mitogen-activated protein kinase 1 (Homo sapiens, UniProt P28482); assay: DRUGMATRIX: Protein Serine/Threonine Kinase, ERK2 enzyme inhibition (substrate: Myelin Basic Protein); design: species or system Escherichia coli; conditions: Not Active = under 50% inhibition at 10 µM
Sequence of Mitogen-activated protein kinase 1 (P28482 whole entry): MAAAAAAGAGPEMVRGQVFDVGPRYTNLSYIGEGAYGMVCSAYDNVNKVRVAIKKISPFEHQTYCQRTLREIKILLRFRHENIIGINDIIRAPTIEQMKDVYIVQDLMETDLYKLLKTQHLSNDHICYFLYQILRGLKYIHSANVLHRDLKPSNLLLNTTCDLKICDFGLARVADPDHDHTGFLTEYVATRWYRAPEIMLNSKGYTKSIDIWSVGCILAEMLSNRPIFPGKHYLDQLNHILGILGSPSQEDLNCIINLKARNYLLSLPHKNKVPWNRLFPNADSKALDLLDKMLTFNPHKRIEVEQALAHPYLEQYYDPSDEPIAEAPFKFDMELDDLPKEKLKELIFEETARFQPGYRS

[7] = DRUGMATRIX: GABAA, Chloride Channel, TBOB radioligand binding (ligand: [3H] TBOB); assay type: cell membranes, Rattus norvegicus, Wistar, Cerebral cortex, Membrane; conditions: Not Active = under 50% inhibition at 10 µM
[8] = target: Kappa-type opioid receptor (Homo sapiens, UniProt P41145); assay: DRUGMATRIX: Opiate kappa (OP2, KOP) radioligand binding (ligand: [3H] Diprenorphine); assay type: cell membranes, HEK293, Membrane; conditions: hek293; Not Active = under 50% inhibition at 10 µM
Sequence of Kappa-type opioid receptor (P41145 whole entry): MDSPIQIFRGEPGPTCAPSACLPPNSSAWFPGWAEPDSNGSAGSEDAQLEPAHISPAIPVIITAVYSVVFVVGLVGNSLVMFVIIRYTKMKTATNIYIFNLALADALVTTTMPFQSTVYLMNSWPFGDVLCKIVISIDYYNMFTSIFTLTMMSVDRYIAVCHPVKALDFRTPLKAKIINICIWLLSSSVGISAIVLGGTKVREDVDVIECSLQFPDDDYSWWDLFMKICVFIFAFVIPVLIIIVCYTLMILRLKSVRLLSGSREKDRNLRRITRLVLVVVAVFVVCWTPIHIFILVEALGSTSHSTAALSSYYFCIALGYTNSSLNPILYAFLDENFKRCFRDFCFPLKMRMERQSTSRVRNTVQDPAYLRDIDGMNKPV

[9] = target: Glycine receptor (Rattus norvegicus, UniProt P22771+P24524+P07727+P20781); assay type: cell membranes, Wistar, Spinal cord, Membrane; note: in other assays of this panel Not Active means under 50% inhibition at 10 µM
[10] = target: Melanocortin receptor 5 (Homo sapiens, UniProt P33032); assay type: cell membranes, Membrane; conditions: hek293; note: in other assays of this panel Not Active means under 50% inhibition at 10 µM
Sequence of Melanocortin receptor 5 (P33032 whole entry): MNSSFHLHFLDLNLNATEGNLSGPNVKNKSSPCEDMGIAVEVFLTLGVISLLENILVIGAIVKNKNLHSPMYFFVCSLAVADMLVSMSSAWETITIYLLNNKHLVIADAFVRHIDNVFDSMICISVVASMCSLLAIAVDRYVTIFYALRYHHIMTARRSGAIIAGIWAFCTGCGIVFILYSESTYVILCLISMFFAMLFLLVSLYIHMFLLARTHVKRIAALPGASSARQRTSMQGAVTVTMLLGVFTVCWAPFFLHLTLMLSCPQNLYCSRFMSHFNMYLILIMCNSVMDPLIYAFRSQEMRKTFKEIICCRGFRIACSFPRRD

[11] = DRUGMATRIX: GABAA, Flunitrazepam, Central radioligand binding (ligand: [3H] Flunitrazepam); assay type: cell membranes, Rattus norvegicus, Wistar, Brain, Membrane; conditions: Not Active = under 50% inhibition at 10 µM
[12] = DRUGMATRIX: GABAA, Muscimol, Central radioligand binding (ligand: [3H] Muscimol); assay type: cell membranes, Rattus norvegicus, Wistar, Brain, Membrane; conditions: Not Active = under 50% inhibition at 10 µM

Sequence of Cytochrome P450 2C9 (P11712 whole entry): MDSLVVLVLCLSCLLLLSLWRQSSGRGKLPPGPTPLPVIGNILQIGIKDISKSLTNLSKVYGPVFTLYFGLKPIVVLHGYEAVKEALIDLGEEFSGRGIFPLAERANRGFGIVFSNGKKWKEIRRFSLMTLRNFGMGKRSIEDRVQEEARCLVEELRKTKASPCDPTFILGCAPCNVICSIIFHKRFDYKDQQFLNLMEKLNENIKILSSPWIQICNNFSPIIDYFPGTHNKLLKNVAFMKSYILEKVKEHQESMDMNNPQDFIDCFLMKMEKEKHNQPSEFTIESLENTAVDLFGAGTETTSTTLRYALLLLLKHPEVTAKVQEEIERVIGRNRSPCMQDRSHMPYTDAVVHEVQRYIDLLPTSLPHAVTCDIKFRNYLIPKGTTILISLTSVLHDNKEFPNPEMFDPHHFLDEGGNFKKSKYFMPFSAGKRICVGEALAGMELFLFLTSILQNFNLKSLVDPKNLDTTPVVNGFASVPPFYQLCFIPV

Structure (SMILES)	IC50 [1]	Ki [1]	IC50 [2]	IC50 ([3]; cho)	IC50 [4]	Ki [4]	IC50 [5]	Ki [5]	IC50 [6]	IC50 [7]	Ki [7]	IC50 [8]	IC50 [9]	IC50 [10]	IC50 [11]	Ki [11]	IC50 [12]	Ki [12]	IC50 ([3]; read-out: IC50)	Ki ([3]; read-out: Ki)
Cc1onc(-c2ccccc2)c1-c1ccc(S(N)(=O)=O)cc1 [VALDECOXIB]	Not Active	Not Active	Not Active	Not Active	Not Active	Not Active	Not Active	Not Active	Not Active	Not Active	Not Active	Not Active	Not Active	Not Active	Not Active	Not Active	Not Active	Not Active		
CC[C@]1(O)C[C@@H]2CN(CCc3c([nH]c4ccccc34)[C@@](C(=O)OC)(c3cc4c(cc3OC)N(C)[C@H]3[C@@](O)(C(=O)OC)[C@H](OC(C)=O)[C@]5(CC)C=CCN6CC[C@]43[C@@H]65)C2)C1 [VINBLASTINE]	Not Active	Not Active	Not Active	Not Active	Not Active	Not Active	Not Active	Not Active	Not Active	Not Active	Not Active	Not Active	Not Active	Not Active	Not Active	Not Active	Not Active	Not Active		
CC(=O)N1CCN(c2ccc(OCC3COC(Cn4ccnc4)(c4ccc(Cl)cc4Cl)O3)cc2)CC1 (configuration not stated) [KETOCONAZOLE]	Not Active	Not Active	Not Active	Not Active	Not Active	Not Active	Not Active	Not Active	Not Active	Not Active	Not Active	Not Active	Not Active	Not Active	Not Active	Not Active	Not Active	Not Active		
C[C@]1(Cn2ccnn2)[C@H](C(=O)O)N2C(=O)C[C@H]2S1(=O)=O [TAZOBACTAM]	Not Active	Not Active	Not Active	Not Active	Not Active	Not Active	Not Active	Not Active	Not Active	Not Active	Not Active	Not Active	Not Active	Not Active	Not Active	Not Active	Not Active	Not Active		
[Cl-].[Cl-].[Zn+2] [ZINC CHLORIDE]	Not Active	Not Active	Not Active	Not Active	Not Active	Not Active	Not Active	Not Active	Not Active	Not Active	Not Active	Not Active	Not Active	Not Active	Not Active	Not Active	Not Active	Not Active		
CN1C(C(=O)Nc2ccccn2)=C(O)c2sccc2S1(=O)=O [TENOXICAM]	Not Active	Not Active	Not Active	Not Active	Not Active	Not Active	Not Active	Not Active	Not Active	Not Active	Not Active	Not Active	Not Active	Not Active	Not Active	Not Active	Not Active	Not Active		
CC(=O)N[C@@H]1[C@H](Oc2c3cc4cc2Oc2ccc(cc2Cl)[C@@H](O[C@@H]2O[C@@H](CO)[C@@H](O)[C@H](O)[C@@H]2NC(C)=O)[C@@H]2NC(=O)[C@H](NC(=O)[C@@H]4NC(=O)[C@H]4NC(=O)[C@@H](Cc5ccc(c(Cl)c5)O3)NC(=O)[C@H](N)c3ccc(O)c(c3)Oc3cc(O)cc4c3)c3ccc(O)c(c3)-c3c(O[C@H]4O[C@H](CO)[C@@H](O)[C@@H](O)[C@@H]4O)cc(O)cc3[C@@H](C(=O)O)NC2=O)O[C@@H](CO)[C@@H](O)[C@@H]1O	Not Active	Not Active	Not Active	Not Active	Not Active	Not Active	Not Active	Not Active	Not Active	Not Active	Not Active	Not Active	Not Active	Not Active	Not Active	Not Active	Not Active	Not Active		
COCCCOc1ccnc(C[S+]([O-])c2nc3ccccc3[nH]2)c1C (configuration not stated) [RABEPRAZOLE]	Not Active	Not Active	Not Active		Not Active	Not Active	Not Active	Not Active	Not Active	Not Active	Not Active	Not Active	Not Active	Not Active	Not Active	Not Active	Not Active	Not Active	2330 nM	790 nM
CO[C@H]1/C=C/O[C@@]2(C)Oc3c(C)c(O)c4c(c3C2=O)C2=NC3(CCN(CC(C)C)CC3)NC2=C(NC(=O)/C(C)=C\C=C\[C@H](C)[C@H](O)[C@@H](C)[C@@H](O)[C@@H](C)[C@H](OC(C)=O)[C@@H]1C)C4=O [RIFABUTIN]	Not Active	Not Active	Not Active	Not Active	Not Active	Not Active	Not Active	Not Active	Not Active	Not Active	Not Active	Not Active	Not Active	Not Active	Not Active	Not Active	Not Active	Not Active		
CNC(=C[N+](=O)[O-])NCCSCc1ccc(CN(C)C)o1 [RANITIDINE]	Not Active	Not Active	Not Active	Not Active	Not Active	Not Active	Not Active	Not Active	Not Active	Not Active	Not Active	Not Active	Not Active	Not Active	Not Active	Not Active	Not Active	Not Active		
CC1=C(CC(=O)O)c2cc(F)ccc2/C1=C\c1ccc([S+](C)[O-])cc1 (configuration not stated)	Not Active	Not Active	Not Active	Not Active	Not Active	Not Active	Not Active	Not Active	Not Active	Not Active	Not Active	Not Active	Not Active	Not Active	Not Active	Not Active	Not Active	Not Active		
C[C@@H](N)[C@H]1CC[C@H](C(=O)Nc2ccncc2)CC1 [Y-27632]	Not Active	Not Active	Not Active	Not Active	Not Active	Not Active	Not Active	Not Active	Not Active	Not Active	Not Active	Not Active	Not Active	Not Active	Not Active	Not Active	Not Active	Not Active		
